Legend:
Type in all cases: functional
[1] = test system: Streptococcus pyogenes; experiment: Antibacterial activity against erythromycin-resistant Streptococcus pyogenes 2 clinical isolate assessed as bacterial growth inhibition incubated for 20 hrs by CLSI based broth microdilution method
[2] = test system: Staphylococcus epidermidis; experiment: Antibacterial activity against penicillin-resistant Staphylococcus epidermidis clinical isolate assessed as bacterial growth inhibition incubated for 20 hrs by CLSI based broth microdilution method
[3] = test system: Staphylococcus aureus; experiment: Antibacterial activity against Staphylococcus aureus clinical isolate assessed as bacterial growth inhibition incubated for 20 hrs by CLSI based broth microdilution method
[4] = test system: Staphylococcus aureus; experiment: Antibacterial activity against penicillin-resistant Staphylococcus aureus ATCC31007 assessed as bacterial growth inhibition incubated for 20 hrs by CLSI based broth microdilution method
[5] = test system: Staphylococcus aureus; experiment: Antibacterial activity against methicillin-resistant Staphylococcus aureus ATCC43300 assessed as bacterial growth inhibition incubated for 20 hrs by CLSI based broth microdilution method
[6] = test system: Klebsiella pneumoniae; experiment: Antibacterial activity against Klebsiella pneumoniae ATCC BAA-1902 assessed as bacterial growth inhibition incubated for 20 hrs by CLSI based broth microdilution method
[7] = test system: Acinetobacter baumannii; experiment: Antibacterial activity against Acinetobacter baumannii ATCC19606 assessed as bacterial growth inhibition incubated for 20 hrs by CLSI based broth microdilution method
[8] = test system: Escherichia coli; experiment: Antibacterial activity against wild-type Escherichia coli BW25113 assessed as bacterial growth inhibition incubated for 20 hrs by CLSI based broth microdilution method
[9] = test system: Escherichia coli; experiment: Antibacterial activity against penicillin-susceptible Escherichia coli ATCC25922 assessed as bacterial growth inhibition incubated for 20 hrs by CLSI based broth microdilution method
[10] = test system: Enterococcus faecium; experiment: Antibacterial activity against vancomycin-susceptible Enterococcus faecium ATCC19434 assessed as bacterial growth inhibition incubated for 20 hrs by CLSI based broth microdilution method
[11] = test system: Enterococcus faecalis; experiment: Antibacterial activity against vancomycin-susceptible Enterococcus faecalis ATCC29212 assessed as bacterial growth inhibition incubated for 20 hrs by CLSI based broth microdilution method
[12] = test system: Streptococcus pyogenes; experiment: Antibacterial activity against erythromycin-susceptible Streptococcus pyogenes 1 assessed as bacterial growth inhibition incubated for 20 hrs by CLSI based broth microdilution method
[13] = test system: Staphylococcus aureus; experiment: Antibacterial activity against erythromycin-susceptible Staphylococcus aureus ATCC25923 assessed as bacterial growth inhibition incubated for 20 hrs by CLSI based broth microdilution method
[14] = test system: Bacillus pumilus; experiment: Antibacterial activity against penicillin-susceptible Bacillus pumilus CMCC63202 assessed as bacterial growth inhibition incubated for 20 hrs by CLSI based broth microdilution method
[15] = test system: Bacillus subtilis; experiment: Antibacterial activity against penicillin-susceptible Bacillus subtilis ATCC9372 assessed as bacterial growth inhibition incubated for 20 hrs by CLSI based broth microdilution method
[16] = test system: Enterococcus faecalis; experiment: Antibacterial activity against vancomycin-resistant Enterococcus faecalis ATCC51299 assessed as bacterial growth inhibition incubated for 20 hrs by CLSI based broth microdilution method
[17] = test system: Enterococcus faecium; experiment: Antibacterial activity against vancomycin-resistant Enterococcus faecium ATCC51559 assessed as bacterial growth inhibition incubated for 20 hrs by CLSI based broth microdilution method

| Structure (SMILES) | MIC [1] | MIC [2] | MIC [3] | MIC [4] | MIC [5] | MIC [6] | MIC [7] | MIC [8] | MIC [9] | MIC [10] | MIC [11] | MIC [12] | MIC [13] | MIC [14] | MIC [15] | MIC [16] | MIC [17] |
| --- | --- | --- | --- | --- | --- | --- | --- | --- | --- | --- | --- | --- | --- | --- | --- | --- | --- |
| C[n+]1cc(-c2ccccc2)cc(/C=C/c2cccc(Br)c2)c1-c1ccccc1.[I-] | 8 µg/mL | 8 µg/mL | 2 µg/mL | 16 µg/mL | 4 µg/mL | 64 µg/mL | 16 µg/mL | > 64 µg/mL | 64 µg/mL | 16 µg/mL | 16 µg/mL | 4 µg/mL | 4 µg/mL | 16 µg/mL | 4 µg/mL | 16 µg/mL | 16 µg/mL |
| C[n+]1cc(-c2ccccc2)c(/C=C/c2ccc(F)cc2)cc1-c1ccc(C(C)(C)C)cc1.[I-] | 4 µg/mL | 2 µg/mL | 1 µg/mL | 1 µg/mL | 1 µg/mL | 8 µg/mL | 4 µg/mL | 8 µg/mL | 8 µg/mL | 2 µg/mL | 2 µg/mL | 2 µg/mL | 1 µg/mL | 1 µg/mL | 1 µg/mL | 2 µg/mL | 2 µg/mL |
| Cc1ccc(/C=C/c2cc(-c3ccccc3)c[n+](C)c2-c2ccccc2)cc1.[I-] | 4 µg/mL | 32 µg/mL | 2 µg/mL | 32 µg/mL | 4 µg/mL | > 64 µg/mL | 32 µg/mL | > 64 µg/mL | > 64 µg/mL | 32 µg/mL | 16 µg/mL | 4 µg/mL | 1 µg/mL | 16 µg/mL | 2 µg/mL | 32 µg/mL | 16 µg/mL |
| C[n+]1cc(-c2ccccc2)cc(/C=C/c2ccc(C#N)cc2)c1-c1ccccc1.[I-] | 32 µg/mL | > 64 µg/mL | 32 µg/mL | > 64 µg/mL | 64 µg/mL | > 64 µg/mL | 64 µg/mL | > 64 µg/mL | > 64 µg/mL | > 64 µg/mL | > 64 µg/mL | 32 µg/mL | 8 µg/mL | > 64 µg/mL | 32 µg/mL | > 64 µg/mL | > 64 µg/mL |
| COc1ccc(/C=C/c2cc(-c3ccccc3)c[n+](C)c2-c2ccccc2)cc1.[I-] | 8 µg/mL | 2 µg/mL | 4 µg/mL | 64 µg/mL | 16 µg/mL | > 64 µg/mL | 32 µg/mL | > 64 µg/mL | > 64 µg/mL | 64 µg/mL | 32 µg/mL | 4 µg/mL | 2 µg/mL | 32 µg/mL | 8 µg/mL | 64 µg/mL | 64 µg/mL |
| C[n+]1cc(-c2ccccc2)c(/C=C/c2ccc(N3CCCCC3)cc2)cc1-c1ccc(C(C)(C)C)cc1.[I-] | 2 µg/mL | 1 µg/mL | 0.5 µg/mL | 0.25 µg/mL | 1 µg/mL | 8 µg/mL | 1 µg/mL | 4 µg/mL | 64 µg/mL | 1 µg/mL | 1 µg/mL | 0.5 µg/mL | 0.25 µg/mL | 0.125 µg/mL | 0.5 µg/mL | 2 µg/mL | 1 µg/mL |
| CCCCCOc1ccc(/C=C/c2cc(-c3ccccc3)c[n+](C)c2-c2ccccc2)cc1.[I-] | 2 µg/mL | 1 µg/mL | 1 µg/mL | 1 µg/mL | 1 µg/mL | 8 µg/mL | 2 µg/mL | 4 µg/mL | 4 µg/mL | 2 µg/mL | 2 µg/mL | 2 µg/mL | 0.25 µg/mL | 1 µg/mL | 0.5 µg/mL | 2 µg/mL | 2 µg/mL |

From ChEMBL document CHEMBL5537115, “New broad-spectrum and potent antibacterial agents with dual-targeting mechanism: Promoting FtsZ polymerization and disrupting bacterial membranes” (Eur J Med Chem, 2024)
